Assay [1] concerns Abies nordmanniana cell lines. Put plainly: Maturation of Abies nordmanniana cell lines with different carbohydrate sources (shift from maltose to sucrose). The settings on record: for development of mature embryos: 45 g/L as sole carbohydrate source during the entire maturation period (treatments A, B). Format: cell-based. Here is the method:
Except from the carbohydrates, the basic maturation medium was composed as described for the control in example 1. However, PCIB was included in a prior determined optimum concentration and period for each of the tested cell lines. Four treatments with different combinations of carbohydrates were tested during maturation: • A) Maturation on culture medium comprising 45 g/L sucrose as carbohydrate source during the entire maturation period. • B) Maturation on culture medium comprising 45 g/L maltose as carbohydrate source during the entire maturation period. Typical embryo from the treatment is disclosed in the left picture of FIG. 9. • C) Maturation on culture medium with 45 g/L maltose during the first part of the maturation period, followed by a shift to maturation medium comprising 22.5 g/L sucrose and 22.5 g/L maltose during the last two weeks of the maturation period. Typical embryo from the treatment is disclosed in the right picture of FIG. 9. • D) Maturation on culture medium with 45 g/L maltose during the first part of the maturation period, followed by a shift to maturation medium comprising 45 g/L sucrose as carbohydrate source for the last two weeks of the maturation period. Typical embryo from the treatment is disclosed in the center picture of FIG. 9. Results

The test system of assay [2] is embryogenic cell lines of Abies nordmanniana. Nature of the assay: Maturation of the tested established Abies nordmanniana embryogenic cell lines (G.3.8, G.35.8, G.78.14). Format: cell-based. The source says:
Three different cell lines of Abies nordmanniana were used in the present study. The tested cell lines have been in continuous culture for several years. The cell line G.3.8 was initiated from an immature zygotic embryo in 1989 on half strength MS medium (Murashige and Skoog, 1962) as described previously (Nørgaard and Krogstrup, 1991), Cell line G.35.8 was initiated from a mature zygotic embryo on SH medium in 1991 (Nørgaard and Krogstrup, 1995), and cell line G.78.14 was initiated in 1993 from an immature zygotic embryo on modified half strength BLG medium (Verhagen and Wann, 1989). From 1996, all cultures were maintained by biweekly subculture onto fresh half strength modified BLG medium and grown at 24+/−1° C. in the dark. Cell lines G.3.8 and G.78.14 proliferated fast on maintenance medium with a doubling time of the weight shorter than 2 weeks. Cell line G.35.8 proliferated relatively slowly with a doubling time of the weight higher than 2 weeks.
The standard maturation medium (the control) is modified from the half strength BLG proliferation medium mentioned above. […] The choice of these three culture medium components is determined primarily by the conifer species in question. […] Similarly it is known that addition of PEG-4000 improves maturation. Still it may be possible to obtain just as good results with other combinations of these components and also by using other components with equivalent effects.
In this experiment, the standard maturation medium was modified by excluding PEG and by including one of the following 3 chemicals, that are traditionally expected to affect the endogenous concentration of the naturally occurring auxin IAA or to affect the normal effect of auxin in plant cells: 1) PCIB (auxin-antagonist) in a concentration of 25 or 117 μM, 2) TIBA (auxin transport inhibitor) in a concentration of 5 or 50 μM, 3) phlouroglucinol: (inhibitor of auxin degradation) (see George 1993, page 429 bottom-430) in a concentration of 30 mM. In addition to these modifications the standard maturation medium was modified by: 4) reducing the concentration of boron (precursor of indole acetic acid synthesis) to 10 μM, i.e. 20% of the normal concentration and finally by 5) including 25 μM PCIB in medium with no ABA.
The cultures were matured in the dark at 24° C.+/−1° C.
Two weeks after the last subculture, 4 grams of embryogenic cells was transferred to a 250 mL Flask (Blue cap) together with a magnet stirrer. 100 mL of liquid proliferation medium was added, and the suspension was stirred for 5 minutes at high speed on a magnet stirrer to obtain a homogenous suspension of cells and cell clumps. The culture was then pre-cultured on a gyrotory shaker (120 rpm) for one week at 24+/−1° C. in the dark. Following the pre-culture, the culture was stirred again on a magnet stirrer at high speed for 5 minutes. The culture was transferred to a 100 mL measuring cylinder and allowed to settle for 30 min. The supernatant was discharged and from the remaining culture aliquots of 1 mL were transferred with a cut pipette tip onto filter paper (Whatmann #2) placed on 25 mL of maturation medium in 10 cm Petri dishes (Nunc, Denmark). The filters containing the maturing somatic cultures were transferred onto fresh medium every 2 weeks.
FIG. 5 discloses maturation of cell line G.78.14. This cell line proliferates rapidly and produces very few normal mature embryos according to prior methods. The cell line was matured for 20 weeks on medium comprising 40 μM ABA and a) 25 μM PCIB, b) 0.4 mM phloroglucinol, or c) reduced concentration of Boron (20% of normal concentration). For control see FIG. 1a or 2a.
FIG. 6 discloses maturation of cell line G.78.14 for 20 weeks on maturation medium comprising 40 μM ABA and a) 2.5 mg/L TIBA (5 μM), or b) 25 mg/L TIBA (50 μM).

For the compound `OC[C@H]1O[C@H](O[C@H]2[C@H](O)[C@@H](O)C(O)O[C@@H]2CO)[C@H](O)[C@@H](O)[C@@H]1O` (mixture of isomers) [maltose], the “development of mature embryos” value in assay [1] is given as “high numbers of embryos were produced”. Further, in assay [1] (treatment B: 45 g/L maltose during the entire maturation period), the “average fresh weight of mature embryos” value is recorded as “about 50 mg”.
Turning to `O=C(O)c1cc(I)cc(I)c1I` [TIBA, 2,3,5-tri-iodobenzoic acid], the “development of mature embryos” value in assay [2] (TIBA 5 and 50 μM + 40 μM ABA, 20 weeks) is “only very few, and mostly abnormal, mature embryos developed”. In addition, the “proliferation on the maturation medium” value in assay [2] (TIBA 5 and 50 μM + 40 μM ABA, all tested cell lines) is recorded as “strong reduction of the proliferation”.
Turning to `Oc1cc(O)cc(O)c1` [phloroglucinol], the proliferation during maturation result in assay [2] (phloroglucinol 0.4 mM + 40 μM ABA) is “proliferation was increased”. In addition, in assay [2] (phloroglucinol 0.4 mM + 40 μM ABA, 20 weeks), the “development of well developed embryos” value is listed as “no well developed embryos were found”.
For the compound `OC[C@H]1O[C@@](CO)(O[C@H]2O[C@H](CO)[C@@H](O)[C@H](O)[C@H]2O)[C@@H](O)[C@@H]1O` [sucrose], the “development of mature embryos” value in assay [1] is “no well developed mature embryos were produced”. Besides, the “size of the mature embryos” value in assay [1] (shift from maltose to medium including sucrose during the last two weeks of maturation (treatments C and D)) is “clear increase in the size of the mature embryos”. The “reduction of the maturation period, treatment D compared to treatment B” value in assay [1] (shift to 45 g/L sucrose for the last two weeks) is on record as “about four”. Also, the “average fresh weight of mature embryos” value in assay [1] (treatment D: 45 g/L maltose, shift to 45 g/L sucrose for the last two weeks) is “about 120 mg per embryo”.
